Test system: α-amylase (BUZYME 2508)
Assay: α-amylase activity test with RED-STARCH substrate in paper mill process water
Assay type: biochemical
Settings: for effect on the α-amylase activity (in words): high demand solution containing α-amylase, NaOCl at between 10% to 50% of actual chlorine demand; for α-amylase activity: 15 minutes at 40° C. before substrate, 30 minutes at 40° C., percentage of the maximum reading
Procedure: In the experiments described below, amylase activity was measured using a synthetic α-amylase substrate, “RED-STARCH” obtained from MEGAZYME® (Ireland), and a test procedure developed that allows the use of this substrate in complex paper mill process waters including samples containing cellulose.
The indicated test procedure developed for testing paper mill samples for α-amylase activity includes preparation of the substrate by adding 1 g of powdered RED-STARCH substrate to 50 mL of 0.5 M KCl solution ([…]), and warming up to 60° C. whilst shaking vigorously until dissolved. The prepared substrate can be used fresh or stored under refrigeration until used. A concentrated assay buffer solution was prepared as a 300 mM CaCl2.2H2O solution (39.2 g/l), which for use, is diluted 200 times in the assay. Assays can be performed on any liquid sample recovered in a paper mill. Samples with high turbidity may interfere with the final measurement step. Accordingly, samples containing fiber can be filtered through a paper filter, and liquid from high consistency samples can be recovered by squeezing liquid from the sample. To perform the assay on a sample, 30 μl assay buffer, 3 ml RED-STARCH substrate solution, and a 3 ml test sample solution can be added to a 35 ml test vial, and mix and incubate the vial and contents at constant temperature (35-40° C.) for 30 minutes. The reaction is ended by adding 10 ml ethanol (denatured) or methanol and shaking vigorously, and then allowing the vial and its contents to stand for 2 minutes before filtering the contents through a paper filter. High molecular weight material can be removed by the filtering. Using a 10 ml syringe, the filtered liquid is passed through a 0.22 or 0.45 μm disposable filter cartridge. The liquid that passes through the cartridge is introduced into a spectrophotometer cuvette, and the absorbance (OD) of the reaction solution, and a separate reaction blank, are measured using a spectrophotometer. The reaction blank is prepared by adding 10 ml ethanol or methanol to a test vial first, then add 30 μl assay buffer, 3 ml red starch substrate solution, and a 3 ml test solution, and prepare the samples for measurement as above. The spectrophotometer can be a Hach DR/890 Colorimeter (Hach Company, Loveland Colo.), or other spectrophotometer device. Absorbance can be measured as optical density (OD). On incubation of the RED-STARCH substrate with α-amylase, the substrate can be depolymerized to produce low molecular weight dyed fragments which remain in solution on addition of alcohol to the reaction mixture. The measured value of OD is directly proportional to the α-amylase activity in the test sample. Most spectrophotometers have a scale that reads in OD (absorbance) units, which is a logarithmic scale. A user edited program can be entered into the DR/890 device, including choosing a wavelength of 510 nm at which absorbance is measured, using water as a blank (OD=0), and preparing a maximum α-amylase activity sample by adding a small amount of BUZYME® 2508 (Buckman Laboratories, Belgium) to water and using this in the assay (max. OD that can be measured is approximately 25). The range that is obtained with this program is very large and can suffice for all paper mill samples. Using this testing procedure, paper mill samples typically have absorbance values in the range of 1-7. If a sample gives a maximum reading, it can be diluted in water to determine a more precise value. Results can be represented as the actual number or as a percentage of the maximum reading of the procedure which is 25. The results in Table 1 below show results for α-amylase activity as a percentage of the maximum reading.
In the tests conducted, process water was used that was taken from a coated paper machine pulper fill water tank that was not being treated with an oxidizing program. First, the actual chlorine and monochloramine (NH2Cl) demands of this process water were determined (Table 1). […]

[1] = oxidant added at 10.0% of demand
[2] = oxidant added at 25.0% of demand
[3] = oxidant added at 50% of demand (NaOCl printed 50/0%)
[4] = oxidant added at 100.0% of demand

| SMILES | effect on the α-amylase activity (in words) | α-amylase activity [1] [%] | α-amylase activity [2] [%] | α-amylase activity [3] [%] | α-amylase activity [4] [%] | activity to inactivate amylases (in words) (in direct tests) |
| --- | --- | --- | --- | --- | --- | --- |
| NCl [NH2Cl, monochloramine] | no significant effect | 100.0 | 98.5 | 99.3 | 99.1 |  |
| OCl [NaOCl, sodium hypochlorite] | effective to reduce the α-amylase activity | 99.2 | 87.4 | 43.8 | 2.1 | very efficient |
